In US4895589A, “Heterocyclic compounds” (Imperial Chemical Industries PLC, priority 1985, dated 1990):
Read-outs that look alike come from different tables or passages of the source.

Assays:
Apples = assay: Intermediate Retardant Test, apples; format: in vivo, Apples (Red Delicious); conditions: 672 h, ~28 days, read-out: Percentage Reduction in Height of Apples (Compared to formulation blank)
Method: (§1) Three species are involved in this test RICE, SPRING-BARLEY and APPLES. The variety and growth stages at spray are outlined in Table VI. Compounds were applied at 1000 ppm and 4000 ppm respectively (1 kg and 4 kg ha^-1 at a field volume of 1000 l/ha^-1) as an overall spray. This gives a foliar and root component in the test, i.e. this test will detect the activity of both root and foliar acting compounds. The rice was grown in 4" `paddy` pots, i.e. the roots and bottom of the stems are immersed in water under conditions corresponding to those in paddy fields. Spring barley and apples were grown in 4" pots. The plants were assessed for height to top-most ligule at approximately 28 days after treatment for spring barley and rice and for height to apex at approximately 28 days after the treatment for apples. In each case the result for the 1000 ppm and 4000 ppm test for each compound is compared to the height of the formulation blank in that test, presented as a percentage reduction in height compared to the formulation blank.
as §1, with “in Table XIV. Compounds were” for “in Table VI. Compounds were”, “that test, and presented as” for “that test, presented as”

Barley [1] = conditions: BR, 4000 ppm, 2-3 weeks
Method: (§7) The compounds were tested for plant growth regulator activity against up to tweleve plant species for various growth effects relevant to plant growth regulation.
(§8) After spray, the plants were grown in a glasshouse with 25° C. day/22° C. night temperatures and supplementary lighting was supplied when necessary (from mercury vapour lamps), to provide a 16 hour photoperiod. The exception to this were the temperate cereals, wheat and barley, which were grown in 16° C. day 13° C. night temperatures
(§9) After 2-3 weeks in the glasshouse, depending on the time of year, the plants were visually assessed for morphological characteristics. Formulations blanks were used as controls to assess the Plants.

Cynosurus cristatus = conditions: CC, 4000 ppm, 2-3 weeks
Method: as §7, §8, §9

[2] = system: plant species of Whole Plant Screen (1) or (2); assay: Across screen comparison: total retardation relative to paclobutrazol (Whole Plant Screens (1) and (2)); format: in vivo; conditions: for Total Retardation expressed as a percentage of the total retardation caused by paclobutrazol: compounds of Table I, Table X
Text: The following Example is a general indicative comparison of compounds from EP No. 0052424 with compounds from the preferred class in the present invention. The compounds have not been side-by-side tested on this Example because of the large numbers involved but the retardant activity can be compared using a standard which has been on each test.
The compounds which are compared in this Example have been tested on one of two tests. These are the Whole Plant Screen (1) and Whole Plant Screen (2) the methods for which are described in Examples 17 and 18 respectively.
An across screen comparison between compounds is made by expressing the total retardation (ie. sum of retardation scores recorded for each species tested) caused by the compound as a percentage of the total retardation caused by the standard in that test. The standard chemical gives a measure of the performance of the test and environmental factors. By expressing the test compound activity as a percentage of the standard compound activity these factors can be eliminated . The same standard has been used in every test and this is paclobutrazol a proprietory growth regulator.

Dacrylis glomerata = conditions: DA, 4000 ppm, 2-3 weeks
Method: as §7, §8, §9

Tomato = conditions: TO, 4000 ppm, 2-3 weeks
Method: as §7, §8, §9

Wheat [3] = conditions: WW, 4000 ppm, 2-3 weeks
Method: as §7, §8, §9

Agrostis tenius = conditions: AT, 4000 ppm, 2-3 weeks
Method: as §7, §8, §9

Soya = conditions: SY, 4000 ppm, 2-3 weeks
Method: as §7, §8, §9

Rice [4] = assay: Intermediate Retardant Test, rice; format: in vivo, Rice (Ishikari); conditions: Oryza sativa, 672 h, ~28 days, read-out: Percentage Reduction in Height of Rice (Compared to formulation blank)
Method: as §1
as §1, with “in Table XIV. Compounds were” for “in Table VI. Compounds were”, “that test, and presented as” for “that test, presented as”

Spring Barley = assay: Intermediate Retardant Test, spring barley; format: in vivo, Spring Barley (Atem/kym); conditions: Hordeum vulgare, 672 h, ~28 days, read-out: Percentage Reduction in Height of Spring Barley (Compared to formulation blank)
Method: as §1
as §1, with “in Table XIV. Compounds were” for “in Table VI. Compounds were”, “that test, and presented as” for “that test, presented as”

Rice [5] = assay: Whole Plant Screen (2), rice; format: in vivo, Rice (Ishikari); conditions: RC, 4000 ppm
Method: (§2) After 2-6 weeks in the glasshouse, depending on the time of year, the plants were visually assessed for morphological characteristics. Formulation blanks were used as controls to assess the plants.
(§3) Compound numbers 1, 5 and 7 (of the present invention) were tested against compounds A, B, C and D (compound Nos. 12, 2, 24 and 50 of Table 1 EP No. 0052424) on whole plant screen (2). The compounds were tested of plant growth regulator activity against five species and for various growth effects relevant to plant growth regulation. The structures are set out in FIG. 1.
(§4) The plant species used in this screen are presented in Table XII with the leaf stage at which they were sprayed Each chemical was applied at 4000 ppm (4 kg/ha in a 1000 l/ha field volume) using a tracksprayer and a SS8004E (Teejet) nozzle. […]

Maize = assay: Whole Plant Screen (2), maize; format: in vivo, Maize (Earliking); conditions: MZ, 4000 ppm, 2-6 weeks, Table V
Method: (§5) Compound numbers 12-13, 16-17 and 19-20 were tested on an alternative whole plant screen (2). The compounds were tested for plant growth regulator activity against five species for various growth effects relevant to plant growth regulation.
The plant species used in this screen are presented in Table IV with the leaf stage at which they were sprayed. Each chemical was applied at 4000 ppm (4 kg/ha in a 1000 l/ha field volume) using a tracksprayer and a SS8004E (Teejet) nozzle.
(§6) After spray the plants were grown in a glasshouse with 25° C. day 22° C. night temperatures and supplementary lighting was supplied when necessary (from mercury vapour lamps), to provide a 16 hour photoperiod. The exception to this were the temperate cereals, wheat and barley which were grown in 16° C. day 13° C. night temperatures.
as §2, §3
The plant species used in this screen are presented in Table XII with the leaf stage at which they were sprayed Each chemical was applied at 4000 ppm (4 kg/ha in a 1000 l/ha field volume) using a tracksprayer and a SS8004E (Teejet) nozzle.
as §6, with “day/22°” for “day 22°”, “day/13°” for “day 13°”

Wheat [6] = assay: Whole Plant Screen (2), wheat; format: in vivo, Wheat (Timmo); conditions: WW, 4000 ppm
Method: as §5
The plant species used in this screen are presented in Table IV with the leaf stage at which they were sprayed. Each chemical was applied at 4000 ppm (4 kg/ha in a 1000 l/ha field volume) using a tracksprayer and a SS8004E (Teejet) nozzle. […]
After 2-6 weeks in the glasshouse, depending on the time of year, the plants were visually assessed for morphological characteristics. Formulation blanks were used as controls to assess the plants. […]

Barley [7] = assay: Whole Plant Screen (2), barley; format: in vivo, Barley (Atem); conditions: BR, 4000 ppm, 2-6 weeks, Table V
Method: as §3, §4

Vines = conditions: VN, 4000 ppm, 2-3 weeks
Lettuce = conditions: LT, 4000 ppm, 2-3 weeks
Method: as §7, §8, §9

Compound | percent reduction in plant height vs formulation blank at 1000 ppm (Apples; Table IX) [%] | percent reduction in plant height vs formulation blank at 4000 ppm (Apples; Table IX) [%] | Retardation score (1-3) with greening (G), apical damage (A), tillering/side shooting (T) (Cynosurus cristatus) | Total Retardation expressed as a percentage of the total retardation caused by paclobutrazol [2] | Retardation score (1-3) with greening (G), apical damage (A), tillering/side shooting (T) (Wheat [3]) | Retardation score (1-3) with greening (G), apical damage (A), tillering/side shooting (T) (Agrostis tenius) | Retardation score (1-3) with greening (G), apical damage (A), tillering/side shooting (T) (Soya) | Percent reduction in rice plant height vs formulation blank at 1000 ppm (Rice [4]; Table VII) [%] | Percent reduction in rice plant height vs formulation blank at 4000 ppm (Rice [4]; Table VII) [%] | height reduction vs blank at 1000 ppm (Spring Barley; Table VIII) [%] | height reduction vs blank at 4000 ppm (Spring Barley; Table VIII) [%] | also measured
CCC(C)CC#CC(O)(Cn1cncn1)C(C)(C)C (stereo not drawn) [Compound 10, 2,2-dimethyl-3-hydroxy-3-(4-methyl-hex-1-yne-1-yl)-4-(1,2,4-triazol-1-yl)-butane] | 9.8 | 27.1 | 2 (21-60% retardation) | 47.8 % of paclobutrazol | 2GT | 1 (10-30% retardation) | 2GA | 20.7 | 38.2 | 20.2 | 72.4 | Retardation score (1-3) with greening (G), apical damage (A), tillering/side shooting (T) (Barley [1]): 2GT; Retardation score (1-3) with greening (G), apical damage (A), tillering/side shooting (T) (Dacrylis glomerata): 1 (10-30% retardation); Retardation score (1-3) with greening (G), apical damage (A), tillering/side shooting (T) (Tomato): 1G
CC(C)(C)C(O)(C#CCCCCl)Cn1cncn1 (stereo not drawn) [Compound 13] | 2.8 | 9.2 |  | 83.3 % of paclobutrazol |  |  |  | 6 | 5.2 | 17 | 41 | I = Interligular or internodal length reduction (Rice [5]; 2-6 weeks, Table V): 2 (31-60%); R = Retardation (Rice [5]; 2-6 weeks, Table V): 2 (31-60%); T = Tillering or side shooting (Rice [5]; 2-6 weeks, Table V): 1 (10-30%); I = Interligular or internodal length reduction (Maize): 1 (10-30%); R = Retardation (Maize): 1 (10-30%); G = Greening effect (Wheat [6]; 2-6 weeks, Table V): 1 (10-30%); T = Tillering or side shooting (Wheat [6]; 2-6 weeks, Table V): 1 (10-30%); I = Interligular or internodal length reduction (Barley [7]): 2 (31-60%)
CC(C)(C)C#CC(O)(Cn1cncn1)C(C)(C)C (stereo not drawn) [Compound 5, 2,2-dimethyl-3-hydroxy-3-(3,3-dimethyl-but-1-yne-1-yl)-4-(1,2,4-triazol-1-yl)-butane] |  | 31.5 | 2 (21-60% retardation) | 28.1 % of paclobutrazol | 2 (21-60% retardation) | 1 (10-30% retardation) | 2G | 11.4 | 21.2 | 7 | 22.6 | T = Tillering or side shooting (Rice [5]; side-by-side, Table XIII): 2 (31-60%); percent reduction in plant height vs formulation blank at 1000 ppm (Apples; side-by-side, Table XVII): 2%; percent reduction in plant height vs formulation blank at 4000 ppm (Apples; side-by-side, Table XVII): 24%; range of activity / superiority in comparison with EP 0052424 compounds ([2]; Tables X and XI, across screen comparison): lower range of activity than the rest of the preferred class; G = Greening effect (Wheat [6]; side-by-side, Table XIII): 2 (31-60%); T = Tillering or side shooting (Wheat [6]; side-by-side, Table XIII): 2 (31-60%); Retardation score (1-3) with greening (G), apical damage (A), tillering/side shooting (T) (Vines): 1GT; Retardation score (1-3) with greening (G), apical damage (A), tillering/side shooting (T) (Lettuce): 1 (10-30% retardation); Percent reduction in rice plant height vs formulation blank at 1000 ppm (Rice [4]; side-by-side, Table XVI): 10%; Percent reduction in rice plant height vs formulation blank at 4000 ppm (Rice [4]; side-by-side, Table XVI): 10%; height reduction vs blank at 1000 ppm (Spring Barley; side-by-side, Table XV): 9%; height reduction vs blank at 4000 ppm (Spring Barley; side-by-side, Table XV): 11%
